# Measured values: patent publication US7183320B2, “Benzoylsulfonamides and sulfonylbenzamidines for use as antitumour agents” (Eli Lilly and Company, priority 2002, dated 2007)
# Columns and labels:
# Type in all cases: in vivo
# [1] = system: VEGF-induced neoangiogenesis; assay: Rat corneal micropocket assay, VEGF disks; details: 160 mg/kg orally by gavage once per day, days 1 through 10; Fisher 344 female rats
# Protocol: Rat Corneal Micropocket Assay
# Fisher 344 female rats (145–155 grams; Taconic, Inc., Germantown, N.Y.) were anesthesized with acepromazine (2.5 mg/kg, ip) 20 minutes prior to initiation of 2–3% isoflurane/oxygen inhalation. The body temperature was maintained with a circulating hot water pad. The surgery was performed using an ophthalmic operating microscope (OMS.75 Operating Microscope, TopCon Corporation, Japan). A scalpel blade (#15) was used to make a vertical half-thickness linear corneal incision just lateral to the center of the eye. […] A pocket was formed in the cornea using blunt dissection with corneal scissors (Roboz, Rockville, Md.). Nitrocellulose filters ([…], Millipore, Bedford, Mass.) were cut into small disks using a 20 gauge needle punch. The disks were soaked in 2 μl of human VEGF solution ([…]; R&D Systems) or human basic fibroblast growth factor (0.20 μg/μl; R&D Systems) for 10 minutes on ice. Using forceps, the disks impregnated with the angiogenic factor (VEGF or bFGF) were inserted into the corneal pocket so that the disk is firmly covered with corneal epithelium. […] The images were analyzed by converting the area of interest to high contrast black and white reversed image and counting the bright pixels as a determination of the vascular area. […]
# HUMAN OVARIAN BG-1 = assay: Early stage human ovarian BG-1 xenograft (Table IX); details: Balb/C SCID female mice
# Description: (§1) Conventional Murine Tumor and Human Tumor Xenouraft Assays
# (§2) Inhibition of tumors transplanted into mice is an accepted procedure for studying the efficacy of antitumor agents (Corbett, et al., In vivo Methods for Screening and Preclinical Testing; Use of rodent solid tumors for drug discovery., In: Anticancer Drug Development Guide: Preclinical Screening, Clinical Trials, and Approval, B. Teicher (ed), Humana Press Inc., Totowa, N.J., Chapter 5, pages 75–99 (1997); (Corbett, et al., Int., J. Parmacog., 33, Supplement, 102–122 (1995)). Murine tumors or human xenographs were implanted essentially as described by Corbett in In vivo Methods for Screening and Preclimical Testing; Use of rodent solid tumors for drug discovery. Briefly, the murine tumor or human xenograph was implanted subcutaneously using either 12-gauge trocar implants or counted number of cells. The location for the trocar insertion is midway between the axillary and inguinal region along the side of the mouse. The trocar is slipped approximately ¾ of an inch subcutaneously up toward the axilla before discharging the tumor fragment, and pinching the skin as the trocar is removed., Alternatively, human tumor cells prepared from a […] of donor tumors (5×10^6 cells) were implanted subcutaneously in a hind-leg of a male or female nude mouse (Charles River). Either a test compound in vehicle or vehicle alone was administered by intravenous bolus injection (iv), intraperitoneal injection (ip), or oral gavage (po). Each treatment group, as well as a group of untreated control animals, consisted of five animals per group in each experiment. Subcutaneous tumor response was monitored by tumor volume measurement performed twice each week over the course of the experiment (60–120 days). Body weights were taken as a general measure of toxicity. The subcutaneous tumor data were analyzed by determining the median tumor weight for each treatment group over the course of the experiment and calculating the tumor growth delay as the difference in days for the treatment versus the control tumors to reach a volume of either 500 or 1000 mm^3.
# (§3) The compound of Example 110 was tested against a variety of murine and human tumors substantially as described supra. The parameters measured in each experiment are summarized in the following paragraphs. • Tumor Weight(mg)=(a×b^2)/2 where a=tumor length (mm) and b=tumor width (mm). • Tumor Growth Delay=T−C where T is the median time (days) required for the treatment group tumors to reach a predetermined size, and C is the median time (days) for the control group tumors to reach the same size. Tumor-free survivors are excluded from this calculation, and are tabulated separately (Tumor Free).
# (§4) [formula] • where Tumor Growth Delay is as previously defined and Td is tumor volume doubling time (days), estimated from the best fit straight line from a log-linear growth plot of the control group of tumors in exponential growth (100–800 mg range) • % T/C mass—The treatment and control groups are measured when the control group tumors reach approximately 700 to 1200 mg in size (median group). The median tumor weight of each group is determined (including zeros). The T/C value in percent is an indication of antitumor effectiveness. A T/C≦42% is considered significant antitumor activity. A T/C<10% is considered to indicate highly significant antitumor activity. • Body Weight Loss Nadir—A body weight loss nadir (mean of group) of greater than 20% or drug deaths greater than 20% are considered to indicate an excessively toxic dosage in single course trials. • Activity Rating—the Activity Rating is derived from the Log Kill according to the following table: […]
# HUMAN PROSTATE LNCaP = assay: Early stage human prostate LNCaP xenograft (Table VII); details: total dose 840 mg/kg: 140 mg/kg/injection IV on days 3, 5, 7, 9, 10, and 11, Balb/C SCID female mice
# Description: as §1, §2, §3, §4
# [2] = system: TAXOL RESISTANT HUMAN COLON ADENOCARCINOMA #15/MDR; assay: Early stage taxol resistant human colon adenocarcinoma #15/MDR xenograft (Table XII); details: total dose 500 mg/kg: 100 mg/kg/injection IV on days 3–5 and 13–14; Balb/C SCID female mice
# Description: as §1, §2, §3, §4
# [3] = total dose 600 mg/kg: 100 mg/kg/injection IV on days 3–5 and 9–11
# [4] = total dose 870 mg/kg: 145 mg/kg/injection IV on days 3–5 and 9–11
structure (smiles),measurement,setting,value
"O=C(NS(=O)(=O)c1ccccc1)c1ccc(Cl)cc1Cl [Example 110, N-[2,4-dichlorobenzoyl]phenylsulfonamide]",inhibition of VEGF-induced neoangiogenesis,[1],very effective inhibitor
same,% BODY WT LOSS AT NADIR,HUMAN OVARIAN BG-1; [3],−3.0%
same,% T/C MASS,HUMAN OVARIAN BG-1; [3],0%
same,ACTIVITY RATING,HUMAN OVARIAN BG-1; [3],++++ (HIGHLY ACTIVE >2.8)
same,DRUG DEATHS,HUMAN OVARIAN BG-1; [3],0/5
same,GROWTH DELAY,HUMAN OVARIAN BG-1; [3],30 days
same,LOG KILL,HUMAN OVARIAN BG-1; [3],3.6
same,TUMOR FREE AT DAY 176,HUMAN OVARIAN BG-1; [3],0/5
same,% BODY WT LOSS AT NADIR,HUMAN OVARIAN BG-1; [4],−2.0%
same,% T/C MASS,HUMAN OVARIAN BG-1; [4],0%
same,ACTIVITY RATING,HUMAN OVARIAN BG-1; [4],++++ (HIGHLY ACTIVE >2.8)
same,DRUG DEATHS,HUMAN OVARIAN BG-1; [4],0/5
same,GROWTH DELAY,HUMAN OVARIAN BG-1; [4],30.5 days
same,LOG KILL,HUMAN OVARIAN BG-1; [4],3.7
same,TUMOR FREE AT DAY 176,HUMAN OVARIAN BG-1; [4],1/5
same,% BODY WT LOSS AT NADIR,HUMAN PROSTATE LNCaP,+5.6%
same,% T/C MASS,HUMAN PROSTATE LNCaP,0%
same,ACTIVITY RATING,HUMAN PROSTATE LNCaP,++++ (HIGHLY ACTIVE >2.8)
same,DRUG DEATHS,HUMAN PROSTATE LNCaP,0/5
same,TUMOR FREE AT DAY 185,HUMAN PROSTATE LNCaP,4/5
same,GROWTH DELAY (DAYS),HUMAN PROSTATE LNCaP; one mouse,60^b DAYS
same,LOG KILL,HUMAN PROSTATE LNCaP; one mouse,7.2^b
same,% BODY WT LOSS AT NADIR,[2],+2.1% ^
same,% T/C MASS,[2],10%
same,ACTIVITY RATING,[2],++ (1.3–1.9)
same,DRUG DEATHS,[2],0/5
same,GROWTH DELAY,[2],11 days
same,LOG KILL,[2],1.4
same,TUMOR FREE AT DAY 38,[2],0/5
